Consider one molecule from EP4818330A1, “PHARMACEUTICAL PREPARATION FOR DIAGNOSING AND TREATING ALZHEIMER'S DISEASE” (Shanghai East Hospital Tongji University, priority 2023, dated 2025).

Several values for one entry are separate records, joined by “and”; a condition that tells them apart may be missing. Equal entries are not always repeated.

One data set concerns primary neurons. The experiment in a line: CCK8 cell viability (toxicity) assay in primary neurons. In kind it is cell-based, mouse. The following applies: 24 h, CCK8, three replicate wells. The text has this: (§1) The CCK8 cell viability assay (CCK8) was adopted. Its principle is mainly based on the reduction reaction of WST-8 (chemical name: 2-(2-methoxy-4-nitrophenyl)-3-(4-nitrophenyl)-5-(2,4-disulfophenyl)-2H-tetrazolium monosodium salt). In the presence of living cells, WST-8 can be reduced by dehydrogenases in mitochondria to generate a highly water-soluble orange-yellow formazan product. The color intensity is directly proportional to the number of living cells, wherein the quantity of living cells can be indirectly reflected by measuring the absorbance of formazan products (typically at a wavelength of 450 nm). The CCK-8 assay is widely used in cell proliferation assay, cytotoxicity assay and tumor drug sensitivity test.
(§2) Primary hippocampal neuron culture: After ICR fetal mice at 18-21 days of gestation (E18-E21) were anesthetized, the fetal mice were dissected in a clean area and immersed in 75% ethanol for 1-2 min. The mouse head was taken out, the surface skull was removed with micro-scissors, and the brain tissue was transferred to an anatomical dissociation solution. Under a microscope, blood vessels and meninges were removed, hippocampal tissue was isolated, the extracted hippocampal tissue was placed in a 3.5 cm dish containing the anatomical dissociation solution, and the hippocampal tissue was cut into small fragments using micro-scissors. The minced hippocampal tissue was transferred to a 7 ml EP tube using a pipette gun. The hippocampal tissue hereinabove was centrifuged at 1000 rpm for 3-5 min, and the anatomical separation solution was discarded. 0.5-1 ml of papain digestion solution was added to the EP tube hereinabove, and the EP tube was placed in a 37°C incubator for 30 min. 300 µL of Trituration buffer 300 (DNase) and 5 mL of complete medium were added, and the hippocampal tissue was gently pipetted more than 10 times. The cell suspension was allowed to stand for 3 min, and 3-4 ml of supernatant was gently aspirated into a 15 ml tube using a pipette. 3-4 ml of complete medium was added again, and the hippocampal tissue was gently pipetted more than 10 times. Step 8 was repeated, and 3-4 ml of supernatant was transferred to the same 15 ml tube again. The previous step was repeated again. The collected supernatant was centrifuged at 1000 rpm, the supernatant was discarded, and 5 ml of complete medium was added. The mixture was gently pipetted and suspended, and then centrifuged again at 1000 rpm for 5 min. The complete medium was added to resuspend the cells, and then a portion of the cells was aspirated for counting. Generally, when neuronal cells were planted in a 24-well plate, the concentration of the cell suspension was generally 2×10^5/ml, and 500 µl of cells is inoculated per well. The resuspended neuron cells with a diluted ratio were seeded onto a glass slide treated with PDL, then the glass slide was placed in a 37°C incubator for 10 min, an appropriate amount of complete medium was added, and then the culture is continued in the incubator.

Experiment in data set [1]: as above
In kind it is cell-based, mouse. The following applies: ICR, mouse, primary hippocampal neurons, 24 h, CCK8, three replicate wells.
Excerpt: as §1, §2

The next data set deals with APP/PS1 transgenic mice. The experiment in a line: Morris water maze in APP/PS1 x Thy1-GFP mice. In kind it is in vivo. The protocol: Thy1-GFP mice are commonly used in neuroscience research. The fluorescence labeling of GFP facilitates convenient observation and tracking of specific cell types, especially neurons. APP/PS1 transgenic mice (an animal model of Alzheimer's disease) were crossed with Thy1-GFP mice. The crossed mice aged 5 months were intraperitoneally injected with a compound solution at a concentration of 2.5 mg/kg for 1 month continuously. Subsequently, the crossed mice aged 6 months were subjected to behavioral test (Morris water maze MWM experiment) to evaluate learning and memory abilities (as shown in FIG. 22).
Water maze: A water maze experimental apparatus is circular stainless steel with a diameter of 100 cm and a height of 50 cm, wherein a pool is equally divided into 4 quadrants according to the 4 orientations of east, south, west and north, a circular black hidden platform with a diameter of 9 cm and a height of 27 cm is placed in the center of the target quadrant. […] The movement trajectory of the mouse was synchronously recorded by the camera directly above the water pool, and analyzed by the EthovisionXT monitoring and analysis system. […] The mouse swam in the water for 60 s, and the percentage of time the mouse spent in the target platform quadrant was recorded, representing the learning and memory ability of the mouse.

On to `CCOC(=O)c1[nH]c(C)c(CCC(=O)N2CCCC(C(=O)NCCN3CCCCCC3)C2)c1C` (stereo not drawn) [compound of Formula I, ETHYL4-[3-(3-{[2-(AZEPAN-1-YL)ETHYL]CARBAMOYL}PIPERIDIN-1-YL)-3-OXOPROPYL]-3, 5-DIMETHYL-1H-PYRROLE-2-CARBOXYLATE], for which the cell viability – broadly, a read-out of living cells in per cent, often relative to untreated cells – was 88.68% and 77.1% in the data set on primary neurons (1.25 µmol); 77.35% and 75.31% with primary neurons (5 µmol); 58.82% and 65.03% with primary neurons (10 µmol); 40.38% and 35.57% with primary neurons (20 µmol); 23.14% and 48.19% and 36.68% with primary neurons (40 µmol); 3.329% and 5.244% in the data set with primary neurons (160 µmol). The viability (in general, a per cent measure of how many cells are alive, often set against a control) at 24 h, 1.25 µmol in data set [1] (1.25 µmol) turned out to be 94.5%. Besides, the viability at 24 h, 5 µmol in data set [1] (5 µmol) is 70.7%. Also, in data set [1] (10 µmol), the viability at 24 h, 10 µmol came to 51.8%. Further, the viability at 24 h, 20 µmol in data set [1] (20 µmol) was found to be 37.1%. In addition, in data set [1] (80 µmol), the viability at 24 h, 80 µmol amounted to 4.02%. This molecule also gave a viability at 24 h, 160 µmol in data set [1] (160 µmol) of 4.65%. In data set [1], this molecule came in with a viability at 24 h, 2.5 µmol of 90.6%. For the same molecule, the “time percentage in the platform quadrant” value in the data set on APP/PS1 transgenic mice (APP/PS1+ intervention, IP 2.5 mg/kg for 1 month, day 7 spatial exploration, individual animals, 2.5 mg/kg) was 12.17% and 26.78% and 27.89% and 19.335% and 31.945% and 22% and 29.11%. For the same molecule, the “time percentage of mice in the platform quadrant” value in the data set on APP/PS1 transgenic mice (after compound intervention vs APP/PS1 mice) is “increased”.
